# Source: patent publication US12065443B2, “Compounds and pharmaceutical compositions thereof for the treatment of diseases” (priority 2017, dated 2024)
# Tests used:
# SIK2 = molecular target: T1, SIK2 (Homo sapiens, UniProt Q9H0K1); assay: biochemical; settings: 33P radioactive SIK kinase assay, AMARA peptide, 10 μM ATP
# T1 construct: purchased ThermoFisher Scientific PV4792
# Method in brief: (§1)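 Radiometric assay: SIK1, SIK2 or SIK3 phosphorylates AMARA peptide using unlabelled plus [^33P]-γ-ATP, reaction started by ATP addition. Stopped with 150 mM phosphoric acid, filter-harvested and washed; incorporated ^33P counted by scintillation. Controls: 1% DMSO and 10 μM staurosporine final.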
# SIK1 = molecular target: T2, SIK1 (Homo sapiens, UniProt P57059); assay: biochemical; settings: 33P radioactive SIK kinase assay, AMARA peptide, 10 μM ATP; read-out: SIK1 IC50
# T2 construct: purchased Carna Biosciences 02-131
# Method in brief: as §1
# SIK3 = molecular target: T3, SIK3 (Homo sapiens, UniProt Q9Y2K2); assay: biochemical
# T3 construct: purchased SignalChem S12-11G-100
# Method in brief: as §1
# [1] = tested on: LPS-induced TNFα secretion in monocyte-derived macrophages (MdM); assay: MdM assay: LPS-triggered TNFα (ELISA); format: cell-based, human; settings: Homo sapiens, Macrophage, LPS-triggered TNFα inhibition
# Method in brief: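 Human CD14+ monocytes isolated from buffy-coat PBMCs by magnetic beads, differentiated to macrophages; on day 10 compound preincubated 1 h at 37 °C, then LPS 200 ng/mL added (0.2% DMSO). Supernatant taken after 20 h; TNFα quantified by sandwich ELISA against standard curve.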
# [2] = tested on: LPS triggered IL-10 secretion in monocyte-derived macrophages (MdM); assay: MdM assay: LPS-triggered IL-10 (ELISA); format: cell-based, human; settings: maximal fold change vs LPS only, median across assays
# Method: This assay evaluates illustrative compounds of the invention for their inhibition of LPS-induced TNFα and LPS triggered IL-10 secretion in monocyte-derived macrophages.
# PBMCs are isolated from human blood samples (buffycoats). The buffy coat is aseptically transferred into a 50 mL Falcon tube, and diluted 1/2 in PBS. Falcon tubes are filled with 20 mL Lymphoprep™, on top of which 25 mL of the buffy coat is carefully added, tubes are centrifuged for 35 min at 400 g in temperature controlled centrifuge, without brake, at 25° C. PBMCs are aspirated from the white interface layer between sample and Lymphoprep™. PBMCs are washed five times in PBS.
# PBMCs are centrifuged at 300×g for 10 min and resuspended at a density of 1.0E07 cells/80 μL Miltenyi buffer (PBS, pH 7.4, 1% FBS, 2 mM EDTA).
# Starting from this point of the protocol all steps are performed on ice. 20 μL of CD14+ micro-beads are added per 1.0E07 cells, the tube is mixed and incubated for 15 min in the fridge at 4° C. Cell suspension volume is adjusted to total volume of 100 mL using Miltenyi buffer, mixed gently and subsequently centrifuged for 10 min at 300× g. Supernantant is discarded and cell pellet is resuspended in 12 mL of Miltenyi buffer.
# Four LS columns are placed in the MACS Separator (magnet) from Miltenyi Biotec, and are prewet by rinsing with 3 mL of MACS buffer per column. Three mL of cell suspension is added onto the column (max 1*10^8 of labelled cells/column), and columns are subsequently washed 3 times with 3 mL of Miltenyi buffer.
# The columns are removed from the magnets, and 5 mL of Miltenyi buffer are added to the column to flush out the CD14+ fraction by pushing the plunger into the column. The flushed fractions are collected in a fresh 50 mL Falcon and volume is adjusted to 30 mL using Miltenyi buffer, cells are centrifuged for 10 min at 300× g. The obtained cell pellet is resuspended in 10 mL RPMI w/o FBS, and cell density is determined using a hematologic analyser (Sysmex XS-500i).
# On day 10, MdMs are triggered and compound is added.
# A compound dilution plate is made in 100% DMSO by 3-fold dilution of 10 mM stock solution. An intermediate dilution plate (10× final concentration) is made by diluting the compound dilution plate 50-fold in RPMI medium.
# Medium is carefully removed from cell plates using multichannel pipette, and replaced by 80 μL fresh medium. 10 μL of the 10× final concentration compound is added to the cells and incubated for 1 hour at 37° C. before addition of trigger. No trigger conditions/trigger conditions are spiked with equal final DMSO concentrations of 0.2% DMSO. 10 μL of 10×LPS (final conc. 200 ng/mL) solution are added to all wells except for the ‘no trigger wells’ where 10 μL medium is added. Supernatant is collected after 2 h (IL-10 determination) and after 20 h (TNFα determination) of LPS triggering.
# Plates are washed three times with PBST, where after 100 μL of Strep-HRP conjugate (0.5 μg/mL final concentration diluted in dilution buffer) is added. Plates are incubated in the dark, at 37° C. for 30 min. Plates are washed three times with PBST. […] 100 μL of substrate solution is added to each well and incubated until brilliant blue color develops. The reaction is stopped by adding 50 μL of 1 M H2SO4, after which absorbance is measured at 450 nm on the SpectraMax i3, Molecular Devices.
# To quantify these inductions fold changes (FC) compared to ‘LPS only’ are calculated for each concentration tested and the maximal FC is calculated (IL-10 FCmax):
# [formula] wherein ABS=Absorbance measured at 450 nm.
# The median maximal FC for test compounds across two or more assays is reported (IL-10FCmax median).
# T2 sequence (P57059 whole entry): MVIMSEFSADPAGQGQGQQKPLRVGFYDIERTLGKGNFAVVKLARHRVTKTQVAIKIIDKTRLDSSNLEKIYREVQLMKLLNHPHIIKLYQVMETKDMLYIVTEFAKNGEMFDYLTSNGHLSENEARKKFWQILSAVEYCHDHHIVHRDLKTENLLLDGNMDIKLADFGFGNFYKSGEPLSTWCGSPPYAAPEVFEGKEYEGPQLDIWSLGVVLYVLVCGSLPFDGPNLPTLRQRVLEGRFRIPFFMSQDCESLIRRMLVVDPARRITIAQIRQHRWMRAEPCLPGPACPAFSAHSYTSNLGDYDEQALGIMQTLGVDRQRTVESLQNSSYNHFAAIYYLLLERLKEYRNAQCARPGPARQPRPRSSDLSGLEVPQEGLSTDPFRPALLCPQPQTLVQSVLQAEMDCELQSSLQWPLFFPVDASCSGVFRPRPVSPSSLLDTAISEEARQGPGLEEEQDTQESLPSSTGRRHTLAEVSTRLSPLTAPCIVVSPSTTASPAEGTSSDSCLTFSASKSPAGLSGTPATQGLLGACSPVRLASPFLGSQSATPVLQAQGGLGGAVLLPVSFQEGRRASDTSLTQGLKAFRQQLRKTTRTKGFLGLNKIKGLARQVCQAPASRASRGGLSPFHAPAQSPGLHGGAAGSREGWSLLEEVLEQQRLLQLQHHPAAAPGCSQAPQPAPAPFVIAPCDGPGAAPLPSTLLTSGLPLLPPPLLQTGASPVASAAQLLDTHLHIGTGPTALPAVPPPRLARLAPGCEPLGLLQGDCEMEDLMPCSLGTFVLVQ
# T1 sequence (Q9H0K1 whole entry): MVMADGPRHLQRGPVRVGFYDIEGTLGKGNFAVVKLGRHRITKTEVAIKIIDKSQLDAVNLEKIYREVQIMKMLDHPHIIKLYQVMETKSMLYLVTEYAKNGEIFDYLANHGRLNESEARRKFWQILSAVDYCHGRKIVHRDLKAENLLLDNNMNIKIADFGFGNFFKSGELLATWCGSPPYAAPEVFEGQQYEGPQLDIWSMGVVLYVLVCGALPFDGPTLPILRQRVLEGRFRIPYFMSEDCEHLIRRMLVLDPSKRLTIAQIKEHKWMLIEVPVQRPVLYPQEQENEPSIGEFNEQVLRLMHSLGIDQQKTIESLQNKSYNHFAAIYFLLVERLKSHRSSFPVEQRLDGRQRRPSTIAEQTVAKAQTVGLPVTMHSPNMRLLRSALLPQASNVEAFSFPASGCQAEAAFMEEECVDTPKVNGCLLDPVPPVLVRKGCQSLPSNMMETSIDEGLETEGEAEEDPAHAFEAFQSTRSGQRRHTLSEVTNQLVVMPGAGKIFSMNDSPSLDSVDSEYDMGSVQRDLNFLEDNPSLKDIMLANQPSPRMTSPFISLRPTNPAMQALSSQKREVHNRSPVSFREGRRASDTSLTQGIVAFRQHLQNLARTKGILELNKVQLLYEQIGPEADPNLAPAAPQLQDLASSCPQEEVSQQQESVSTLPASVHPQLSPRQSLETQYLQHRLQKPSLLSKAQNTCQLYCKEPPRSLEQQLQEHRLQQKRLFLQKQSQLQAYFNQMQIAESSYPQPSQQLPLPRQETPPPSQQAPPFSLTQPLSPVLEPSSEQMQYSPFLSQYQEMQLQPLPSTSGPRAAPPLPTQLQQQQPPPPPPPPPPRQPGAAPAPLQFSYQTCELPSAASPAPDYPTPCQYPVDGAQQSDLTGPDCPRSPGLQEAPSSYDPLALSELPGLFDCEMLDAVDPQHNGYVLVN
# T3 sequence (Q9Y2K2 whole entry): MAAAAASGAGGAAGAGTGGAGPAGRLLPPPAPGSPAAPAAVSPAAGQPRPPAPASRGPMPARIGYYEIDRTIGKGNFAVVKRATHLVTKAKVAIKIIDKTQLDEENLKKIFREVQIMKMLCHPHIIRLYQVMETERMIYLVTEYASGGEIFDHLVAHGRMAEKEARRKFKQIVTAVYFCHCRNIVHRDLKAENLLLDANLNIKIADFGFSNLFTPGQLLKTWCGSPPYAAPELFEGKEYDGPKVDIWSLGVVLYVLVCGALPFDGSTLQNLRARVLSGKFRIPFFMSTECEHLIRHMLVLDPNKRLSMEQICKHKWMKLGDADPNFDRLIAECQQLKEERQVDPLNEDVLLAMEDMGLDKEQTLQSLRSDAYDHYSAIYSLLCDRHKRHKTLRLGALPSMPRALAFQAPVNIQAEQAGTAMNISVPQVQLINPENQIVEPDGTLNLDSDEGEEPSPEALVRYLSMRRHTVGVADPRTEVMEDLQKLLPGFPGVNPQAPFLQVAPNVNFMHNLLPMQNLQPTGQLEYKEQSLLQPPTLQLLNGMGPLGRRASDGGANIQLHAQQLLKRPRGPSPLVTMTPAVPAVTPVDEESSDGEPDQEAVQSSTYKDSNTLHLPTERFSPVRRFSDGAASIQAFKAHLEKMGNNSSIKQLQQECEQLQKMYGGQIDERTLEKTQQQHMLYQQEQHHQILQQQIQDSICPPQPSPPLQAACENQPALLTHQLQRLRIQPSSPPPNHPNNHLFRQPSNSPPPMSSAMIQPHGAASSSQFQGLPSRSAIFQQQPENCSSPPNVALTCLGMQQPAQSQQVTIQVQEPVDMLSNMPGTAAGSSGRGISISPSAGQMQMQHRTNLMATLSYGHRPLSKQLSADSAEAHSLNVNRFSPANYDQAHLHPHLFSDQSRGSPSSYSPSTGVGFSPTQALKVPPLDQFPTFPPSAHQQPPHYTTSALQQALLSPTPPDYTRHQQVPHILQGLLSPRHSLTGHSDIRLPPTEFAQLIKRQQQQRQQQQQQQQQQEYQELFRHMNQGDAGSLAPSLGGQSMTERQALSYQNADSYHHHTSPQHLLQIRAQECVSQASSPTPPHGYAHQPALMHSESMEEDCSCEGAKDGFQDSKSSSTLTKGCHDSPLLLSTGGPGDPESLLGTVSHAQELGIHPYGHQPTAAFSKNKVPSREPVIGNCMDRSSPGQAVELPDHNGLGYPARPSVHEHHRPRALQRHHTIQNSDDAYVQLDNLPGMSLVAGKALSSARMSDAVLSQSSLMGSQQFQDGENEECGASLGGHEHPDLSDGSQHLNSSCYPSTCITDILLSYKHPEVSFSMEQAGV
Compound,IC50 (SIK2) [nM],IC50 (SIK1) [nM],IC50 (SIK3) [nM],EC50 [1] [nM],IL-10 FCmax median [2]
"COc1cc(-n2cnc3cc(-c4cnn(CCO)c4)ccc32)cc(OC)c1C(=O)NCC(F)(F)F [compound 33, 4-[5-[1-(2-hydroxyethyl)pyrazol-4-yl]benzimidazol-1-yl]-2,6-dimethoxy-N-(2,2,2-trifluoroethyl)benzamide]",0.01 to 10,0.01 to 10,0.01 to 10,> 5000,++ (>1.5-4.5)
"COc1cc(-n2cnc3cc(-c4cnn(CC#N)c4)ccc32)cc(OC)c1C(=O)NCC(F)(F)F [compound 40, 4-[5-[1-(cyanomethyl)pyrazol-4-yl]benzimidazol-1-yl]-2,6-dimethoxy-N-(2,2,2-trifIuoroethyl)benzamide]",0.01 to 10,10 to 100,0.01 to 10,0.1 to 100,++ (>1.5-4.5)
"COc1cc(-n2cnc3cc(-c4cnn(CCN5CCOCC5)c4)ccc32)cc(OC)c1C(=O)NCC(F)(F)F [compound 41, 2,6-dimethoxy-4-[5-[1-(2-morpholinoethyl)pyrazol-4-yl]benzimidazol-1-yl]-N-(2,2,2-trifluoroethyl)benzamide]",0.01 to 10,10 to 100,0.01 to 10,100 to 1000,++ (>1.5-4.5)
"CCn1cc(-c2ccc3c(c2)ncn3-c2cc(OC)c(C(=O)NC3C[C@H]3C)c(OC)c2)cn1 (stereo partly drawn) [compound 49, 4-[5-(1-ethylpyrazol-4-yl)benzimidazol-1-yl]-2,6-dimethoxy-N-[(2R)-2-methylcyclopropyl]benzamide]",10 to 100,10 to 100,10 to 100,> 5000,++ (>1.5-4.5)
"CCn1cc(-c2ccc3c(c2)ncn3-c2cc(OC)c(C(=O)NCC#N)c(OC)c2)cn1 [compound 50, N-(cyanomethyl)-4-[5-(1-ethylpyrazol-4-yl)benzimidazol-1-yl]-2,6-dimethoxy-benzamide]",0.01 to 10,10 to 100,0.01 to 10,100 to 1000,++ (>1.5-4.5)
"CCn1cc(-c2ccc3c(c2)ncn3-c2cc(OC)c(C(=O)NC3CC3)c(OC(F)F)c2)cn1 [compound 54, N-cyclopropyl-2-(difluoromethoxy)-4-[5-(1-ethylpyrazol-4-yl)benzimidazol-1-yl]-6-methoxy-benzamide]",0.01 to 10,10 to 100,0.01 to 10,0.1 to 100,++ (>1.5-4.5)
"COc1cc(-n2cnc3cc(-c4cnn(C)c4)ccc32)cc(OC)c1C(=O)N[C@@H](C)C(F)(F)F [compound 80, 2,6-dimethoxy-4-[5-(1-methylpyrazol-4-yl)benzimidazol-1-yl]-N-[(1S)-2,2,2-trifluoro-1-methyl-ethyl]benzamide]",0.01 to 10,10 to 100,10 to 100,0.1 to 100,++ (>1.5-4.5)
"COc1cc(-n2cnc3cc(-c4cnn(C)c4)ccc32)cc(OC)c1C(=O)N[C@@H]1C[C@@H]1F [compound 144, N-[(1R,2S)-2-fluorocyclopropyl)-2,6-dimethoxy-4-[5-(1-methylpyrazol-4-yl)benzimidazol-1-yl]benzamide]",0.01 to 10,0.01 to 10,0.01 to 10,0.1 to 100,++ (>1.5-4.5)
"CCNC(=O)c1c(OC)cc(-c2cnc3cc(-c4cnn(C5CCN(C)CC5)c4)ccn23)cc1OC(F)F [compound 148, 2-(difluoromethoxy)-N-ethyl-6-methoxy-4-[7-[1-(1-methyl-4-piperidyl)pvrazol-4-yl]imidazo[1,2-a]pyridin-3-yl]benzamide]",0.01 to 10,0.01 to 10,0.01 to 10,0.1 to 100,++ (>1.5-4.5)
COc1cc(-n2cnc3cc(-c4cnn(C)c4)ccc32)cc(OC)c1C(=O)N[C@@H]1C[C@@H]1C(F)F [compound 158],0.01 to 10,10 to 100,0.01 to 10,100 to 1000,++ (>1.5-4.5)
"COc1cc(-c2cnc3cc(-c4cnn(C)c4)ccn23)cc(Cl)c1C(=O)NCC(F)(F)F [compound 207, 2-chloro-6-methoxy-4-[7-(1-methylpyrazol-4-yl)imidazo[1,2-a]pyridin-3-yl]-N-(2,2,2-trifluoroethyl)benzamide]",0.01 to 10,10 to 100,0.01 to 10,100 to 1000,++ (>1.5-4.5)
"COc1cc(-c2cnc3cc(-c4cnn(C)c4)ccn23)cc(OC)c1C(=O)N1CC(C#N)C1 [compound 209, 1-[2,6-dimethoxy-4-[7-(1-methylpyrazol-4-yl)imidazo[1,2-a]pyridin-3-yl]benzoyl)azetidine-3-carbonitrile]",0.01 to 10,0.01 to 10,0.01 to 10,100 to 1000,++ (>1.5-4.5)
"COc1cc(-n2cnc3cc(-c4cnn(C)c4)ccc32)cc(OC)c1C(=O)N1CC(O)(C(F)(F)F)C1 [compound 219, [2,6-dimethoxy-4-[5-(1-methylpyrazol-4-yl)benzimidazol-1-yl]phenyl]-[3-hydroxy-3-(trifluoromethyl)azetidin-1-yl]methanone]",0.01 to 10,0.01 to 10,0.01 to 10,100 to 1000,++ (>1.5-4.5)
"COc1cc(-c2cnc3cc(-c4cn[nH]c4)ccn23)cc(OC)c1C(=O)N[C@H](C)C(F)(F)F [compound 222, 2,6-dimethoxy-4-[7-(1H-pyrazol-4-yl)imidazo[1,2-a]pyridin-3-yl]-N-[(1R)-2,2,2-trifluoro-1-methyl-ethyl]benzamide]",0.01 to 10,0.01 to 10,0.01 to 10,100 to 1000,+++ (>4.5)
"COc1cc(-c2cnc3cc(-c4cc(C)no4)ccn23)cc(OC)c1C(=O)N[C@H](C)C(F)(F)F [compound 223, 2,6-dimethoxy-4-[7-(3-methylisoxazol-5-yl)imidazo[1,2-a]pyridin-3-yl]-N-[(1R)-2,2,2-trifluoro-1-methyl-ethyl]benzamide]",10 to 100,10 to 100,10 to 100,100 to 1000,+++ (>4.5)
"COc1ccc(-c2ccn3c(-c4cc(OC)c(C(=O)NCC(F)(F)F)c(OC)c4)cnc3c2)cn1 [compound 239, 2,6-dimethoxy-4-[7-(6-mcthoxy-3-pyridyl)imidazo[1,2--a]pyridin-3-yl]-N-(2,2,2-trifluoroethyl)benzamide]",0.01 to 10,10 to 100,0.01 to 10,100 to 1000,++ (>1.5-4.5)
